Reference: PubChem BioAssay (NCI)
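Method: 48-hour compound exposure of cells in 96-well plates, five concentrations, linear interpolation of endpoints. Abbreviation: GI50, concentration required for 50% inhibition of growth. TGI is the concentration that stops growth completely.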

Assays:
Test in all cases: NCI tumour cell line growth inhibition, 48 h
[1] = test system: ACHN renal
[2] = test system: CAKI-1 renal
[3] = test system: DU-145 prostate
[4] = test system: HCT-15 colon
[5] = test system: MDA-MB-231 breast
[6] = test system: MDA-MB-435
[7] = test system: NCI-H226 lung
[8] = test system: NCI-H460 lung
[9] = test system: NCI-H522 lung
[10] = test system: SF-268 CNS
[11] = test system: SF-539 CNS
[12] = test system: SNB-19 CNS
[13] = test system: SW-620 colon
[14] = test system: T-47D breast
[15] = test system: U251 CNS
[16] = test system: UACC-62 melanoma
[17] = test system: A498 renal

Compound	TGI [1] [µM]	TGI [2] [µM]	TGI [3] [µM]	TGI [4] [µM]	TGI [5] [µM]	TGI [6] [µM]	TGI [7] [µM]	TGI [8] [µM]	TGI [9] [µM]	TGI [10] [µM]	TGI [11] [µM]	TGI [12] [µM]	TGI [13] [µM]	TGI [14] [µM]	TGI [15] [µM]	TGI [16] [µM]	TGI [17] [µM]	GI50 [3] [µM]	GI50 [16] [µM]
O=C(O)Cc1cccc2c1OC(c1ccccc1)C(C(=O)c1ccccc1)C2=O (stereo unspecified)	> 100	> 100	> 100	> 100	> 100	> 100	> 100	> 100	> 100	> 100	> 100	> 100	> 100	56.9	> 100	48.7	–	–	–
C[C@H]1CCCCC[C@@H]2CC(=O)CC2C(=O)CCC(=O)O1 (stereo partly specified)	> 100	–	> 100	> 100	> 100	> 100	> 100	> 100	> 100	> 100	> 100	> 100	> 100	> 100	> 100	> 100	–	–	–
CCOC(=O)CCC(NC(=O)c1ccc(Nc2nc3ccccc3n3cccc23)cc1)C(=O)OCC (stereo unspecified)	46	> 100	97.7	> 100	48.4	> 100	–	> 100	60	> 100	34.6	> 100	> 100	1.99	62.3	53.6	> 100	–	–
C/C=C/C(C#N)(Cc1ccccc1)OP1(=O)OC(c2ccccc2)C(C)N1C (stereo unspecified)	> 100	> 100	> 100	> 100	> 100	> 100	–	> 100	> 100	> 100	> 100	> 100	> 100	> 100	> 100	> 100	> 100	–	–
Cc1nc(-c2cc3c(ccc4ccccc43)oc2=O)cc2c1c(=O)oc1ccc3ccccc3c12	> 100	> 100	> 100	> 100	> 100	> 100	–	> 100	> 100	> 100	> 100	> 100	> 100	> 100	> 100	> 100	> 100	–	–
Cc1cc(N(CCCCl)CCCCl)ccc1C=Nc1cccc(Cl)c1	25.8	–	27.9	30.2	29.3	36.2	0.562	22.6	43.7	48.4	–	34.6	25.4	24.1	32.2	7.28	–	–	–
COC(=O)c1c2c(c(-c3ccccc3)c3c1-c1nc(Cl)ccc1CC3)CCc1ccc(Cl)nc1-2	> 100	> 100	–	> 100	–	–	> 100	> 100	> 100	> 100	> 100	> 100	> 100	–	> 100	> 100	> 100	–	–
O=C(/C=C\c1ccccc1)Oc1ccc(/C=C2\CCCCC2=O)cc1	> 100	97.9	> 100	79.7	> 100	84.6	–	> 100	> 100	> 100	> 100	> 100	> 100	> 100	> 100	0.136	> 100	–	–
CCOC(=O)CCC(C(=O)OCC)n1nnc2ccc(Nc3c(C)[n+]([O-])c4cc(Cl)ccc4[n+]3[O-])cc21 (stereo unspecified)	> 100	> 100	> 100	58.2	–	40.4	81.5	> 100	47	55.1	39.9	> 100	–	44.3	> 100	35.1	–	–	–
COc1ccc(/C=C2\SC(c3ccc(OC)cc3)N(NC(=O)Cc3ccccc3)C2=O)cc1 (stereo unspecified)	> 100	> 100	–	> 100	–	–	> 100	> 100	> 100	> 100	> 100	–	> 100	–	> 100	> 100	> 100	–	–
CSCCCNC(=O)c1csc(-c2csc(CCN)n2)n1	> 100	> 100	> 100	> 100	> 100	> 100	–	> 100	> 100	> 100	> 100	> 100	> 100	> 100	> 100	> 100	–	–	–
CN1C(=O)c2c(c3c4ccccc4n(C4OC(CO)C(O)C(O)C4O)c3c3[nH]c4ccccc4c23)C1=O (stereo unspecified)	6.45	5.3	9.66	17.4	5.33	6.95	–	12.1	1.66	4.85	4.7	8.42	16.2	–	10.8	4.09	3.26	–	–
CC(C)=C[C@@H]1C[C@H](C)c2c(O)cc(C)c3c2C1=C(C)C(=O)C3=O	34.3	30.2	28.6	29.4	33.9	29.4	33	48.8	28.8	31.4	32.3	29.1	32.4	–	26.7	29.6	37.4	–	–
CCCc1c(C(=O)OCC)[nH]c(-c2ccc(-c3[nH]c(C(=O)OCC)c(CCC)c3C(=O)OCC)o2)c1C(=O)OCC	> 100	> 100	–	> 100	–	–	> 100	> 100	> 100	> 100	> 100	> 100	> 100	–	> 100	> 100	> 100	–	–
COc1cc2nc(-c3ccccc3F)[nH]c(=O)c2cc1OC	> 100	> 100	> 100	> 100	> 100	–	> 100	> 100	> 100	> 100	–	> 100	–	> 100	–	> 100	> 100	–	–
O=C(Cc1ccccc1)NNc1nc(NNC(=O)c2ccncc2)nc(Nc2ccccc2)n1	–	> 10	> 10	> 10	> 10	–	–	> 10	–	> 10	> 10	–	–	> 10	> 10	> 10	–	–	–

Compound	TGI [1] [µM]	TGI [2] [µM]	TGI [3] [µM]	TGI [4] [µM]	TGI [5] [µM]	TGI [6] [µM]	TGI [7] [µM]	TGI [8] [µM]	TGI [9] [µM]	TGI [10] [µM]	TGI [11] [µM]	TGI [12] [µM]	TGI [13] [µM]	TGI [14] [µM]	TGI [15] [µM]	TGI [16] [µM]	TGI [17] [µM]	GI50 [3] [µM]	GI50 [16] [µM]
C[C@]12CC[C@H](O)C=C1CC[C@@H]1[C@@H]2CC[C@]2(C)C(=N/O)/C(=C/c3ccncc3)C[C@@H]12	23.8	> 100	19.9	> 100	23.9	42.8	25.3	30.7	33.3	49.4	27.3	32	> 100	44.4	19.6	19.3	–	–	–
Cc1ccc2c(c1)SC(c1cc3c(cc1Br)OCO3)S2 (stereo unspecified)	> 31.6	> 100	–	> 31.6	–	–	> 31.6	> 31.6	> 31.6	> 31.6	> 31.6	> 100	> 100	–	> 31.6	> 31.6	> 31.6	–	–
COc1ccc2c(c1)CCCN1Cc3cc(OC)c(OC)cc3CC21 (stereo unspecified)	> 100	> 100	> 100	> 100	> 100	> 100	> 100	> 100	> 100	> 100	> 100	> 100	> 100	> 100	> 100	> 100	–	–	–
CCOC(=O)C(=Cc1cc(OC)ccc1OC)C(=O)OCC	31.8	28.1	–	22	–	–	27	> 100	14.4	–	15.1	25	14	–	20	6.13	28.5	–	–
COc1ccc(C2CC(=O)CC(c3ccc(OC)cc3)C23C(=O)NC(=S)NC3=O)cc1 (stereo unspecified)	> 100	> 100	> 100	> 100	–	> 100	> 100	> 100	> 100	> 100	> 100	> 100	> 100	> 100	> 100	> 100	–	–	–
CC1(Br)C(=O)NC(=O)N(C2CC(N=[N+]=[N-])C(CO)O2)C1N=[N+]=[N-] (stereo unspecified)	> 100	> 100	–	> 100	–	–	–	> 100	66.8	> 100	> 100	> 100	> 100	–	> 100	> 100	> 100	–	–
Cc1nc(-c2nc(C)c(C(=O)NN(C)C)s2)sc1C(=O)NN(C)C	> 100	> 100	–	> 100	–	–	> 100	> 100	> 100	> 100	> 100	> 100	–	–	> 100	> 100	> 100	–	–
Nc1ccc(Nc2c3ccccc3nc3ccccc23)cc1	4.58	6.94	> 10	> 10	> 10	> 10	7.52	8.07	> 10	> 10	> 10	> 10	> 10	> 10	> 10	5.22	–	–	–
CCOC(=O)[C@H]1Nc2ccc(Cl)cc2[C@H]2OCC[C@@H]12	> 100	> 100	–	> 100	–	–	> 100	> 100	> 100	> 100	> 100	> 100	> 100	–	> 100	> 100	> 100	–	–
COc1ccc(OC)c(C#Cc2ccc(OC)c(C(=O)NCCc3ccc(F)cc3)c2)c1	> 100	> 100	> 100	> 100	–	4.62	–	> 100	> 100	> 100	–	> 100	> 100	> 100	> 100	> 100	> 100	> 100	5.96
CC(C)c1c(O[Si](C(C)C)(C(C)C)C(C)C)c2c3c(ccc4c3c1OC4(C)C)C(C)CC2 (stereo unspecified)	> 100	> 100	> 100	> 100	> 100	> 100	> 100	> 100	> 100	> 100	> 100	> 100	> 100	–	> 100	> 100	> 100	–	–
Cc1ccc(C(CC(=O)C(C)(C)CN2CCCCC2)SCCS(=O)(=O)O)cc1 (stereo unspecified)	70.8	51	> 100	72	> 100	57.7	70.5	> 100	51.2	> 100	49.1	> 100	62.8	–	81.8	46.8	48.7	–	–
C/C1=C\[C@H](C)C[C@H](C)OC(=O)C[C@H](c2ccc(O)cc2)NC(=O)[C@H](Cc2ccc(O)c(Br)c2)N(C)C(=O)[C@H](C)NC(=O)[C@@H](C)C1	> 25	–	> 25	> 25	> 25	> 25	> 25	–	> 25	> 25	–	> 25	> 25	–	> 25	> 25	> 25	–	–
COc1c(C)c(C/C=C(\C)CCCCO)c(OC)c(OC)c1OC	> 100	–	> 100	> 100	> 100	> 100	–	35.1	> 100	> 100	> 100	> 100	> 100	–	> 100	> 100	–	–	–
Cc1nc2ccccc2c(=O)n1NC(=S)Nc1cccc(Cl)c1	> 100	> 100	–	> 100	–	–	> 100	> 100	> 100	> 100	> 100	–	> 100	–	> 100	> 100	> 100	–	–
